Test results from EP1073891B1, “METHOD OF PREDICTING RECEPTOR MODULATING ACTIVITY” (Duke University, priority 1998, dated 1999).
Like-named read-outs stand apart in the source and are kept apart here. Blank lines part the entries; values can stand above or below the compound they belong to.

What was measured:
ERβ [1] = target: T1, ERβ (Homo sapiens, UniProt Q92731); assay: Phage ELISA / fingerprint on ER immobilized on biotinylated ERE (Examples 2.3-2.5); settings: probe α/β I (LXXLL motif)
Experimental: Immulon 4 96-well plates were coated with streptavidin in 0.1 sodium bicarbonate.
All of the phage were classified based on their ability to bind to ER a and ER β, in the presence or absence of SERMs. These assays were conducted by phage ELISA. In essence, plastic plates were coated with streptavidin (sigma). Biotinylated-EREs (see above) were conjugated to the solid-phase streptavidin, and ER to the ERE. Bound phage were detected using horseradish peroxidase-labeled anti-(M13 phage) antibodies.
The ER was then incubated with 100µl TBST or TBST containing 1 µM of the appropriate modulator. Phage (40µl), from a 5 hour culture grown in DH5αF' cells, was added directly to the wells and incubated 30 minutes at room temperature. Unbound phage were then removed by 5 washes with TBST. Bound phage were detected using an anti-M13 antibody coupled to horseradish peroxidase (HRP). Assays were developed with 2,2'-azinobis(3-ethylbenzothiazoline)-6 sulfonic acid (ABTS) and hydrogen peroxide for 10 minutes and then stopped by the addition of 1% SDS.
The binding activity is indicated on a semiquantitative scale of 0 to 7+.
The probes were used to fingerprint the interaction of ER α and ER β with a variety of different SERMs by the assay method previously described (using ERE). Next, we evaluated the binding of each of the probes to ERα and ERβ in the presence of a variety of ER ligands that have distinct biological activities. The goal was to determine if each of the ligands would induce a conformational change in the ER that would alter the binding pattern of the probes, thus producing a "fingerprint" for each compound. […] Buffer only (apo-receptor) and progesterone were included as controls.
Phage were amplified from plaques in DHSα F' for 5 hours. Bound phage were detected as described previously. Assays were developed with ABTS (2,2'-azinobis(3-ethylbenzthiazoline-sulfonic acid) for 10 minutes.

full length ER = target: T2, full length ER (Homo sapiens, UniProt P03372); assay: Mapping of probe binding sites, phage ELISA on directly immobilized receptor
T2 construct: amino terminal domain (1-184) fused to GST, and the full length ER; purchased PanVera Corporation, Madison, WI
T2 sequence (P03372 1-595): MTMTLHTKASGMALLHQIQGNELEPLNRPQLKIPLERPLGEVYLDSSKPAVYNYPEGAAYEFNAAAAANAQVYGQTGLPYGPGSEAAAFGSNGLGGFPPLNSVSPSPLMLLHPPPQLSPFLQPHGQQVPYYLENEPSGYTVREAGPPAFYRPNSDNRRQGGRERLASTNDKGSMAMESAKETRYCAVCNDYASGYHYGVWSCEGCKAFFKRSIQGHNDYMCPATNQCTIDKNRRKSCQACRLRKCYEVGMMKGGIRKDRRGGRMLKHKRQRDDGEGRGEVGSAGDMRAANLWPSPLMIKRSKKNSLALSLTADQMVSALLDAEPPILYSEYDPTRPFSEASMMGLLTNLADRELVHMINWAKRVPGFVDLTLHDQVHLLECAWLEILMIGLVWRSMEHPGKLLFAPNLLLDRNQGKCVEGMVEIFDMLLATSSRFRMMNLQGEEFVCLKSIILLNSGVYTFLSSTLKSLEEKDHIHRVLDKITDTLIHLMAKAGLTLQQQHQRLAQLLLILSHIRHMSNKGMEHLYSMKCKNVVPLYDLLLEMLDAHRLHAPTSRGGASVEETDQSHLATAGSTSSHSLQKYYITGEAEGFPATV
Experimental: Assays were conducted using the format described in Example 2.3, except that the domains were directly immobilized on the plastic surface of the well. Assays were conducted as for phage ELISA (Ex. 2.3).

ER = format: cell-based
MCF-7 cell xenografts = assay: Growth of MCF-7 cell xenografts in A-thymic nude mice; format: in vivo
[2] = In vivo tissue pharmacology of antiestrogen (uterus, bone, cardiovascular system); settings: assayed in vivo
[3] = target: T3, estrogen receptor α (ERα) (Homo sapiens, UniProt P03372); assay: LexA yeast two hybrid, β-galactosidase activity assay (Example 3); format: cell-based
T3 construct: The full length estrogen receptor was subcloned in frame into the EcoRI and XhoI sites of pJG4-5; expressed in transfected cells; host or cells: Saccharomyces cerevisiae EGY48
T3 sequence (P03372 1-595): T2 sequence (P03372 1-595)
Description: The LexA system that we employ utilizes a bacterial DNA binding protein domain, LexA, and a bacterially derived transcriptional activation sequence, B42. Proteins or peptides of interest are fused in frame with these domains and expressed using episomal plasmids in a yeast cell. The interactions between these proteins/peptides of interest are registered by monitoring the level of the reporter gene product, β-galactosidase, by an enzymatic assay. The differences in the levels of β-galactosidase activities reflect the relative strengths of the protein interactions.
The yeast strains used in this study was EGY48 (MAT a trp1 his3 ura3 leu2::61exAops-LEU2) purchased from OriGeneTechnologies for yeast two hybrid analysis. This strain contains 6 LexA operators upstream of the LEU2 gene in the yeast genome and provides high sensitivity in detecting protein-protein interactions in the LexA two hybrid system. The plasmids used in this study were pEG202 (LexA-DNA binding domain), pJG4-5 (B42-activation domain), and the plasmid containing a β-galactosidase reporter, pJK103 (OriGene Technologies). The full length estrogen receptor was subcloned in frame into the EcoRI and XhoI sites of pJG4-5 to generate an ERα-B42 activation domain fusion. ERα was subcloned in the activation domain plasmid because ERα was able to autoactivate reporters when fused to the LexA DNA binding domain.
The peptide sequences used in this study were generated from synthetic oligos filled in by T7 Sequenase (Life Science) and subcloned into the EcoRI-XhoI sites of pEG202. The synthetic oligos were: [formula] [formula] [formula] [formula] The complementary synthetic oligo used to generate double stranded DNA was 3'XhoPrim, 5'-[…]. Each 5'-oligo was annealed to the 3'-oligo by heating to 90 °C for 15 minutes and cooled slowly to 35 °C. T7 sequenase was added and the fill-in reaction allowed to proceed at 30 °C for 30 minutes. The reaction was terminated by heat denaturing the enzyme at 65 °C for 1 hour, restriction digests were performed and the resulting DNA fragments subcloned into pEG202 to generate peptide-LexA DNA binding domain fusions.
The culture was diluted to ~2x10^6 cells/ml in the same media and allowed to grow at 30 °C until the cultures reached a density of ~1x10^7 cells/ml (∼4 hours). The yeast cells were pelleted by centurifugation, washed with extraction buffer (60 mM Na2HPO4, 40 mMNaH2PO4, 10 mM KCl, 1 mM MgSO4, 1mM PMSF, 7 mM 2-mercaptoethanol) and suspended in 200 µl of extraction buffer. 100 µl of acid-washed glass beads were added and cells were lysed by vigorous agitation for 10 minutes at 4 °C. Cellular debris was pelleted by centrifugation and the supernatant transferred to a clean tube. 10 µg of total cellular protein was diluted into complete Z buffer (60 mM Na2HPO4, 40 mMNaH2PO4 , 10 mM KCl, 1 mM MgSO4, 7 mM 2-mercaptoethanol) to a volume of 100 µl in a 96-well microplate. 80 µg of o-nitrophenyl-β-D-pyranoside (ONPG) in 20 µl was added to each well to initiate color development.
10µg of each protein extract was assayed for β-galactosidase activity using o-nitrophenyl-b-D-pyranoside as substrate. Activity units are defied as 1000* Abs405/minutes/mg/protein.
Values are in beta-galactosidase units (MOD/min/mg)

full length ER-α = target: T4, full length ER-α (Homo sapiens, UniProt P03372); assay: Affinity selection and phage ELISA of X7-LXXLL-X7 library on estradiol treated ER (Example 101.1); format: binding
T4 construct: Baculovirus expressed full length ER-α; host or cells: baculovirus expression
T4 sequence (P03372 1-595): T2 sequence (P03372 1-595)
Experimental: M13 phage-based random peptide libraries were incubated with target proteins in the wells, ER binding phage were retained while the unbound phage were washed away. Bound phage were eluted by low pH buffer, amplified in DH5αF' cells and subjected to subsequent round of selection. The selection processes were repeated 2-3 times to enrich for EB bonding phage. Individual phage were plaque purified, amplified and their binding characteristics were examined by ELISA.

ERα [4] = target: T5, ERα (Homo sapiens, UniProt P03372); format: binding; parameters: purchased PanVera Corporation, Madison, WI; settings: Table 14, ERα and ERβ; progesterone 1 µM
T5 sequence (P03372 1-595): T2 sequence (P03372 1-595)
Experimental: Oligonucleotides corresponding to the vitellogenin ERE, biotin-[…] (forward) and biotin-[…] (reverse), were synthesized by Genosys.
These assays were conducted by phage ELISA.
Res. Treat. […] Jordan, Pharmacological Rev. […] And Metab.
Bound phage were detected as described previously.

ERβ [5] = target: T1, ERβ; assay: Time resolved fluorescence (TRF) binding of europium-streptavidin peptide conjugates in the presence of modulators; parameters: purchased PanVera Corporation, Madison, WI; settings: for EC50 / Equiv.: ERβ; for Equiv.: positive: % of maximum stimulation by the reference modulator, negative: % of reduction by ICI 182,780
ERα [6] = target: T5, ERα; assay: Phage ELISA on plastic-immobilized ER, with or without estradiol, agonists or SERMs (Examples 1.3a, 1.4); format: binding; parameters: purchased PanVera Corporation, Madison, WI
Description: ER alpha (Panvera Corp.) was immobilized on Immulon 4 plastic plates (Dynatech) for the phage affinity selection as described in patent application Fowlkes, 09/050,359. Peptide sequences obtained for binding to the unliganded (unactivated) receptor are listed below (Table 1).
Phage expressing distinct peptide sequences were classified according to a number of different parameters.
The effect of agonists and SERMs on the binding of phage from each of the 5 classes described above was investigated.
The following fingerprints were identified (Table 6). The data are based on the relative change in binding (as determined by an increase or decrease in absorbance) compared to the unliganded receptor. The number of + or - signs indicates the degree and the direction of the change in signal; +/- indicates no significant change.

T1 sequence (Q92731 whole entry): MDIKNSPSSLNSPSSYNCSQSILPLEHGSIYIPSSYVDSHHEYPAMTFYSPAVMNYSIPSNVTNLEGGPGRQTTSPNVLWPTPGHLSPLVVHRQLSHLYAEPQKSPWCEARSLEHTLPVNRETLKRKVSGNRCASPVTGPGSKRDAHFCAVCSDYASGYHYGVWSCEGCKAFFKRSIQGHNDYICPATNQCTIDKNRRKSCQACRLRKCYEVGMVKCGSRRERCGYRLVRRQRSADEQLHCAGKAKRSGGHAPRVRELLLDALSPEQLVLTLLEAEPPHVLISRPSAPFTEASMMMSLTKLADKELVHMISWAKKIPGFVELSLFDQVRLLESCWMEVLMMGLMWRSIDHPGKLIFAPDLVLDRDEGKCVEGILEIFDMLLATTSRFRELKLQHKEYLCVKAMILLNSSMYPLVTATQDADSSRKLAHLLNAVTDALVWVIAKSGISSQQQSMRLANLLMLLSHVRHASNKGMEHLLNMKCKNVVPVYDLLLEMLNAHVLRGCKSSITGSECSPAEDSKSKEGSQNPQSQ

binding of the probe α/β I to ER β in the presence of the ligand (ERβ [1]): prevented the binding
Compound: C[C@]12CC[C@@H]3c4ccc(O)cc4C[C@@H](CCCCCCCCC[S+]([O-])CCCC(F)(F)C(F)(F)F)[C@H]3[C@@H]1CC[C@@H]2O (stereo partly shown) [ICI 182,780]

binding to the full length protein (full length ER): binds only to the full length protein
Compound: SSEYCFYWDSAHCSR [α I]

Compound: CC/C(=C(\c1ccccc1)c1ccc(/C=C/C(=O)O)cc1)c1ccccc1 [GW5638]
AF-1 and AF-2 agonist activity (ER): devoid of AF-1 and AF-2 agonist activity
inhibition of tamoxifen partial agonist activity (ER; assayed in vitro): inhibits tamoxifen partial agonist activity under all conditions examined
growth of MCF-7 cell xenografts (MCF-7 cell xenografts): effectively inhibited
activity in bone and the cardiovascular system [2]: functions as an estrogen
uterotrophic activity [2]: does not display uterotrophic activity

Peptide Interactions with ER Alpha, beta-galactosidase units, value ([3]; 4-hydroxy Tamoxifen): 20267 MOD/min/mg
Peptide Interactions with ER Alpha, beta-galactosidase units, value ([3]; Estradiol): 38883 MOD/min/mg
Peptide Interactions with ER Alpha, beta-galactosidase units, value ([3]; No Addition): 30983 MOD/min/mg
Peptide Interactions with ER Alpha, beta-galactosidase units, value ([3]; Tamoxifen Citrate): 11947 MOD/min/mg
affinity for ERα (full length ER-α; affinity-selected peptide): high affinity
Compound: GHEPLTLLERLLMDDKQAV [Peptide F6]

Compound: CC(=O)[C@H]1CC[C@H]2[C@@H]3CCC4=CC(=O)CC[C@]4(C)[C@H]3CC[C@]12C [progesterone]
binding pattern of the probes (fingerprint) compared with buffer (ERα [4]): indistinguishable from that produced by buffer

Compound: O=C(c1ccc(OCCN2CCCCC2)cc1)c1c(-c2ccc(O)cc2)sc2cc(O)ccc12 [raloxifene]
binding of the β I probe to ER β (ERβ [5]): reduced
binding of the probe α/β I to ER β in the presence of the ligand (ERβ [1]): prevented the binding

binding of ER in presence of estradiol (ERα [6]): weak binders
Compound: SSYQWETHSDKWRSR

Compound: CC/C(=C(\c1ccc(O)cc1)c1ccc(OCCN(C)C)cc1)c1ccccc1 [4-OH Tamoxifen, 4-OH tamoxifen]
binding of the β I probe to ER β (ERβ [5]): enhanced
binding of the probe α/β I to ER β in the presence of the ligand (ERβ [1]): prevented the binding

Compound: CCN(CC)CCOc1ccc(C(=C(Cl)c2ccccc2)c2ccccc2)cc1 [Clomiphene, clomiphene]
binding of the β I probe to ER β (ERβ [5]; TRF binding assay, in the presence of the compound): reduced
EC50 (ERβ [5]; peptide probe α/βIII): 82.2 nM
Equiv. (ERβ [5]; peptide probe α/βIII): 34%
Equiv. (ERβ [5]; peptide probe α/βIV): 0%
EC50 (ERβ [5]; peptide probe α/βV): 150 nM
Equiv. (ERβ [5]; peptide probe α/βV): 13%
EC50 (ERβ [5]; peptide probe βI): 135 nM
Equiv. (ERβ [5]; peptide probe βI): -62%
EC50 (ERβ [5]; peptide probe βIII): 123 nM
Equiv. (ERβ [5]; peptide probe βIII): -61%
binding of the probe α/β I to ER β in the presence of the ligand (ERβ [1]): prevented the binding

Compound: SSNHQSRLIELLSR [ER4]
binding to ligand occupied ER (full length ER-α; agonist, partial agonist or antagonist occupied ER): binds to agonist occupied ER but not partial agonist- or antagonist-occupied ER

binding of ER in presence of estradiol (ERα [6]): weak binders
Compound: SSVTKKALTIAKDSR
